The record followed here is ChEMBL document CHEMBL1122295, “Modified steroid hormones. 7. 4-Fluoro-17 beta-estradiol: carbon-13 nuclear magnetic resonance, crystal and molecular structure, and biological activity” (1983).

Type in all cases: functional
The species entered for experiment [1] is Rattus norvegicus. Briefly: Effect on the tumor incidence was determined in DMBA treated rats on day 30 (1 rats with tumors out of 10 rats).
Experiment [2] is filed under the species Rattus norvegicus. Nature of the experiment: Effect on the tumor incidence was determined in DMBA treated rats on day 8 (3 rats with tumors out of 10 rats).
The species named for experiment [3] is Rattus norvegicus. Nature of the experiment: Effect on the tumor incidence was determined in DMBA treated rats on day 150 (3 rats with tumors out of 10 rats).
The species named for experiment [4] is Rattus norvegicus. Nature of the experiment: Effect on the average tumor number was determined in DMBA treated rats on day 8 (3 rats with tumors out of 10 rats).
For experiment [5], the species on record is Rattus norvegicus. Nature of the experiment: Effect on the average tumor number was determined in DMBA treated rats on day 1 (5 rats with tumors out of 10 rats).
Experiment [6] is filed under the species Rattus norvegicus. Nature of the experiment: Effect on the average tumor mass was determined in DMBA treated rats on day 6 (5 rats with tumors out of 10 rats).
Experiment [7] is filed under the species Rattus norvegicus. Briefly: Effect on the average tumor number was determined in DMBA treated rats on day 150 (3 rats with tumors out of 10 rats).
The species entered for experiment [8] is Rattus norvegicus. Nature of the experiment: Effect on the average tumor mass was determined in DMBA treated rats on day 1 (5 rats with tumors out of 10 rats).
Experiment [9] is filed under the species Rattus norvegicus. Nature of the experiment: Effect on the average tumor mass was determined in DMBA treated rats on day 150 (3 rats with tumors out of 10 rats).
For experiment [10], the species on record is Rattus norvegicus. Briefly: Effect on the average tumor number was determined in DMBA treated rats on day 6 (5 rats with tumors out of 10 rats).
For experiment [11], the species on record is Rattus norvegicus. Briefly: Effect on the average tumor mass was determined in DMBA treated rats on day 30 (1 rats with tumors out of 10 rats).
Experiment [12] is filed under the species Rattus norvegicus. Briefly: Effect on the average tumor mass was determined in DMBA treated rats on day 8 (3 rats with tumors out of 10 rats).
Experiment [13] is filed under the species Rattus norvegicus. Nature of the experiment: Effect on the tumor incidence was determined in DMBA treated rats on day 6 (5 rats with tumors out of 10 rats).
The species entered for experiment [14] is Rattus norvegicus. Briefly: Effect on the average tumor number was determined in DMBA treated rats on day 30 (1 rats with tumors out of 10 rats).
Experiment [15] is filed under the species Rattus norvegicus. Briefly: Effect on the tumor incidence was determined in DMBA treated rats on day 1 (5 rats with tumors out of 10 rats).
Experiment [16] is filed under the species Rattus norvegicus. Briefly: Effect on the average tumor number was determined in DMBA treated rats on day 150 (2 rats with tumors out of 10 rats).
The species entered for experiment [17] is Rattus norvegicus. Nature of the experiment: Effect on the average tumor number was determined in DMBA treated rats on day 30 (3 rats with tumors out of 10 rats).
Experiment [18] is filed under the species Rattus norvegicus. Briefly: Effect on the average tumor mass was determined in DMBA treated rats on day 8 (4 rats with tumors out of 10 rats).
Experiment [19] is filed under the species Rattus norvegicus. Nature of the experiment: Effect on the tumor incidence was determined in DMBA treated rats on day 150 (2 rats with tumors out of 10 rats).
The species named for experiment [20] is Rattus norvegicus. Briefly: Effect on the average tumor mass was determined in DMBA treated rats on day 30 (3 rats with tumors out of 10 rats).
The species entered for experiment [21] is Rattus norvegicus. Nature of the experiment: Effect on the tumor incidence was determined in DMBA treated rats on day 8 (4 rats with tumors out of 10 rats).
For experiment [22], the species on record is Rattus norvegicus. Nature of the experiment: Effect on the average tumor mass was determined in DMBA treated rats on day 150 (2 rats with tumors out of 10 rats).
Experiment [23] is filed under the species Rattus norvegicus. Nature of the experiment: Effect on the average tumor number was determined in DMBA treated rats on day 8 (4 rats with tumors out of 10 rats).
The species named for experiment [24] is Rattus norvegicus. Briefly: Effect on the tumor incidence was determined in DMBA treated rats on day 30 (3 rats with tumors out of 10 rats).
The species named for experiment [25] is Rattus norvegicus. Briefly: Effect on the tumor incidence was determined in DMBA treated rats on day 30 (9 rats with tumors out of 10 rats).
For experiment [26], the species on record is Rattus norvegicus. Briefly: Effect on the average tumor mass was determined in DMBA treated rats on day 30 (9 rats with tumors out of 10 rats).
The species named for experiment [27] is Rattus norvegicus. Nature of the experiment: Effect on the tumor incidence was determined in DMBA treated rats on day 150 (9 rats with tumors out of 10 rats).
Experiment [28] is filed under the species Rattus norvegicus. Nature of the experiment: Effect on the average tumor number was determined in DMBA treated rats on day 150 (9 rats with tumors out of 10 rats).
The species entered for experiment [29] is Rattus norvegicus. Briefly: Effect on the average tumor mass was determined in DMBA treated rats on day 150 (9 rats with tumors out of 10 rats).
The species named for experiment [30] is Rattus norvegicus. Briefly: Effect on the average tumor number was determined in DMBA treated rats on day 30 (9 rats with tumors out of 10 rats).
Experiment [31] is filed under the species Rattus norvegicus. Briefly: Effect on the average tumor mass was determined in DMBA treated rats on day 6 (4 rats with tumors out of 10 rats).
The species named for experiment [32] is Rattus norvegicus. Nature of the experiment: Effect on the tumor incidence was determined in DMBA treated rats on day 30 (10 rats with tumors out of 10 rats).
The species entered for experiment [33] is Rattus norvegicus. Nature of the experiment: Effect on the average tumor number was determined in DMBA treated rats on day 30 (10 rats with tumors out of 10 rats).
For experiment [34], the species on record is Rattus norvegicus. Nature of the experiment: Effect on the tumor incidence was determined in DMBA treated rats on day 6 (4 rats with tumors out of 10 rats).
The species named for experiment [35] is Rattus norvegicus. Briefly: Effect on the average tumor number was determined in DMBA treated rats on day 150 (10 rats with tumors out of 10 rats).
For experiment [36], the species on record is Rattus norvegicus. Briefly: Effect on the tumor incidence was determined in DMBA treated rats on day 150 (10 rats with tumors out of 10 rats).
The species named for experiment [37] is Rattus norvegicus. Nature of the experiment: Effect on the average tumor mass was determined in DMBA treated rats on day 150 (10 rats with tumors out of 10 rats).
For experiment [38], the species on record is Rattus norvegicus. Briefly: Effect on the average tumor mass was determined in DMBA treated rats on day 30 (10 rats with tumors out of 10 rats).
For experiment [39], the species on record is Rattus norvegicus. Briefly: Effect on the average tumor number was determined in DMBA treated rats on day 6 (4 rats with tumors out of 10 rats).

Each structure is given as a SMILES string. Where “and” joins values, the source holds several entries; their conditions need not be identical. Identical values can stand only once.

With `CC(C)[C@@H]1C(=O)N2CCC[C@H]2[C@]2(O)O[C@](NC(=O)[C@@H]3C=C4c5cccc6[nH]cc(c56)C[C@H]4N(C)C3)(C(C)C)C(=O)N12.C[C@]12CC[C@@H]3c4ccc(O)c(F)c4CC[C@H]3[C@@H]1CC[C@@H]2O.O=C(O)/C=C\C(=O)O`, the Total tumors in the experiment listed under Rattus norvegicus [1] is 1; in the experiment filed under Rattus norvegicus [2], 3; in the experiment filed under Rattus norvegicus [3], 3; in the experiment listed under Rattus norvegicus [13], 5; in the experiment filed under Rattus norvegicus [15], 6. Besides, the Tumor number in the experiment filed under Rattus norvegicus [4] was 1; in the experiment filed under Rattus norvegicus [5], 1.2; in the experiment filed under Rattus norvegicus [7], 1; in the experiment filed under Rattus norvegicus [10], 1; in the experiment listed under Rattus norvegicus [14], 1. For the same compound, the Tumor mass in the experiment filed under Rattus norvegicus [6] stood at 0.2 g; in the experiment filed under Rattus norvegicus [8], 0.4 g; in the experiment filed under Rattus norvegicus [9] it was 2.7 g; in the experiment filed under Rattus norvegicus [11] it was 0.3 g; in the experiment filed under Rattus norvegicus [12] it was 0.2 g.

For `CC(=O)[C@H]1CC[C@H]2[C@@H]3CCC4=CC(=O)CC[C@]4(C)[C@H]3CC[C@]12C.CC(C)[C@@H]1C(=O)N2CCC[C@H]2[C@]2(O)O[C@](NC(=O)[C@@H]3C=C4c5cccc6[nH]cc(c56)C[C@H]4N(C)C3)(C(C)C)C(=O)N12.C[C@]12CC[C@@H]3c4ccc(O)c(F)c4CC[C@H]3[C@@H]1CC[C@@H]2O.O=C(O)/C=C\C(=O)O`, the Tumor number in the experiment filed under Rattus norvegicus [16] is 2.5; in the experiment filed under Rattus norvegicus [5] it was 1 and 1.2; in the experiment filed under Rattus norvegicus [7] it was 1; in the experiment listed under Rattus norvegicus [17], 1; in the experiment listed under Rattus norvegicus [10], 1.4; in the experiment filed under Rattus norvegicus [14] it was 1. Moreover, the Tumor number in the experiment filed under Rattus norvegicus [23] is 1.3 and 1.4. In addition, the Total tumors in the experiment listed under Rattus norvegicus [1] was 1; in the experiment filed under Rattus norvegicus [3] it was 3; in the experiment filed under Rattus norvegicus [19] it was 5; in the experiment listed under Rattus norvegicus [13], 7; in the experiment filed under Rattus norvegicus [21], 5 and 6; in the experiment filed under Rattus norvegicus [24], 3. For the same compound, the Total tumors in the experiment listed under Rattus norvegicus [15] was 5 and 6. Further, the Tumor mass was 0.8 g and 0.6 g in the experiment listed under Rattus norvegicus [6]; 0.5 g and 0.6 g in the experiment filed under Rattus norvegicus [18]; 0.5 g and 0.4 g in the experiment filed under Rattus norvegicus [8]; 1.2 g in the experiment listed under Rattus norvegicus [9]; 0.5 g in the experiment listed under Rattus norvegicus [11]; 0.3 g in the experiment listed under Rattus norvegicus [20]. This compound yielded a Tumor mass in the experiment listed under Rattus norvegicus [22] of 5 g.

In the case of `CC(C)[C@@H]1C(=O)N2CCC[C@H]2[C@]2(O)O[C@](NC(=O)[C@@H]3C=C4c5cccc6[nH]cc(c56)C[C@H]4N(C)C3)(C(C)C)C(=O)N12.O=C(O)/C=C\C(=O)O`, the Total tumors in the experiment filed under Rattus norvegicus [25] is listed as 12; in the experiment filed under Rattus norvegicus [27], 16; in the experiment filed under Rattus norvegicus [13] it was 6; in the experiment listed under Rattus norvegicus [21] it was 5; in the experiment listed under Rattus norvegicus [15] it was 8. The Tumor number is given as 1.6 in the experiment filed under Rattus norvegicus [5]; 1.9 in the experiment filed under Rattus norvegicus [28]; 1.2 in the experiment filed under Rattus norvegicus [10]; 1.3 in the experiment listed under Rattus norvegicus [30]; 1.3 in the experiment filed under Rattus norvegicus [23]. The Tumor mass in the experiment filed under Rattus norvegicus [6] worked out at 0.4 g; in the experiment filed under Rattus norvegicus [26], 0.4 g; in the experiment filed under Rattus norvegicus [18], 0.4 g; in the experiment filed under Rattus norvegicus [8], 0.8 g; in the experiment listed under Rattus norvegicus [29], 1.7 g.

For the compound `CC(=O)[C@H]1CC[C@H]2[C@@H]3CCC4=CC(=O)CC[C@]4(C)[C@H]3CC[C@]12C.CC(C)[C@@H]1C(=O)N2CCC[C@H]2[C@]2(O)O[C@](NC(=O)[C@@H]3C=C4c5cccc6[nH]cc(c56)C[C@H]4N(C)C3)(C(C)C)C(=O)N12.O=C(O)/C=C\C(=O)O`, the Total tumors was 4 in the experiment listed under Rattus norvegicus [2]; 15 in the experiment listed under Rattus norvegicus [32]; 4 in the experiment filed under Rattus norvegicus [34]; 17 in the experiment filed under Rattus norvegicus [36]; 6 in the experiment listed under Rattus norvegicus [15]. For the same compound, the Tumor mass in the experiment listed under Rattus norvegicus [31] was 0.7 g; in the experiment listed under Rattus norvegicus [8] it was 0.4 g; in the experiment filed under Rattus norvegicus [37], 4 g; in the experiment listed under Rattus norvegicus [12], 0.9 g; in the experiment filed under Rattus norvegicus [38], 1.5 g. The Tumor number turned out to be 1.3 in the experiment filed under Rattus norvegicus [4]; 1.2 in the experiment filed under Rattus norvegicus [5]; 1.5 in the experiment filed under Rattus norvegicus [33]; 1.7 in the experiment filed under Rattus norvegicus [35]; 1 in the experiment filed under Rattus norvegicus [39].
